In paper PMC5796218 (International Journal of Molecular Sciences, 2018):
Structures can show the parent of a compound that is named as a salt. Where two headings read alike, the source gives them in different places.

Columns and labels:
[1] = molecular target: MuOPR 38–51 peptide (mu opioid receptor) (Homo sapiens, UniProt P35372); experiment: biochemical
[2] = molecular target: MuOPR 111–122 peptide (mu opioid receptor) (Homo sapiens, UniProt P35372); experiment: biochemical
[3] = molecular target: MuOPR 121–131 peptide (mu opioid receptor) (Homo sapiens, UniProt P35372); experiment: biochemical
[4] = molecular target: MuOPR 132–143 peptide (mu opioid receptor) (Homo sapiens, UniProt P35372); experiment: biochemical
[5] = molecular target: MuOPR 211–226 peptide (mu opioid receptor) (Homo sapiens, UniProt P35372); experiment: biochemical
[6] = molecular target: B2AR 93–100 peptide (β-2-adrenergic receptor) (Homo sapiens, UniProt P07550); experiment: biochemical
Protocol: (§1) Each of these receptor peptides were made into individual stock solutions with a concentration of 1 mg/mL in pH 7.40 phosphate buffered saline solution (Fischer Scientific, Hampton, NH, USA). For each individual test, the stock solution was diluted to 0.1 or 0.2 mg/mL solution. […] The adrenergic or compounds were made up at 1.0 mM solutions and then serially diluted by thirds eleven times using phosphate buffer.
(§2) After the solutions were made, a 96-well quartz crystal plate was prepared to be run through the spectrophotometer at room temperature (approximately 24 °C). […] The absorbance of each receptor peptide without the presence of the adrenergic compound was measured as well. The absorbance of each well was measured at every 10-nm increment from 190–260 nm. The maximum absorbance that can be measured was set to be 4. Each well had 200 μL of solution, so if the absorbance of one component was being measured, it was diluted by half with phosphate buffer.
(§3) If the measured absorbance is different than the additive absorbance of each compound, then that indicates some sort of molecular interaction. The binding can be quantified by graphing the difference in absorbance against the concentration of the compound varied to provide a binding curve. The absorbance for the phosphate buffer is subtracted for each well before any calculations are done. The data are analyzed by finding the additive absorbance, and plotting the difference between this absorbance and the actual absorbance against the concentration of the adrenergic compound. […] The binding constants were estimated from the half-saturation point at 200 nm since the absorbance differences tended to be maximized at this wavelength.

[7] = molecular target: B2AR 97–106 peptide (β-2-adrenergic receptor) (Homo sapiens, UniProt P07550); experiment: biochemical
Protocol: as §1, §2, §3

[8] = molecular target: B2AR 175–188 peptide (β-2-adrenergic receptor) (Homo sapiens, UniProt P07550); experiment: biochemical
Protocol: as §1, §2, §3

[9] = molecular target: D1DR 89–100 peptide (dopamine receptor D1) (Homo sapiens, UniProt P21728); experiment: biochemical
[10] = molecular target: D1DR 175–188 peptide (dopamine receptor D1) (Homo sapiens, UniProt P21728); experiment: biochemical
[11] = molecular target: HIST 77–87 peptide (histamine 1 receptor) (Homo sapiens, UniProt P35367); experiment: biochemical
[12] = molecular target: HIST 89–98 peptide (histamine 1 receptor) (Homo sapiens, UniProt P35367); experiment: biochemical
[13] = molecular target: HIST 96–107 peptide (histamine 1 receptor) (Homo sapiens, UniProt P35367); experiment: biochemical
[14] = molecular target: HIST 105–115 peptide (histamine 1 receptor) (Homo sapiens, UniProt P35367); experiment: biochemical
[15] = molecular target: INSR 105–113 peptide (insulin receptor) (Homo sapiens, UniProt P06213); experiment: biochemical
Protocol: as §1, §2, §3

muOPR peptides = muOPR peptides (Homo sapiens, UniProt P35372); format: binding
Protocol: as §1, §2, §3

[16] = molecular target: intact, purified human mu opioid receptor (muOPR) (Homo sapiens, UniProt P35372); experiment: biochemical; details: for binding to intact muOPR (in words): UV spectra, serial additions in Tris buffer
Protocol: MuOPR expression was achieved using the muOPR transformed C43 (DE3) cell strain of E. coli in Terrific Broth medium as reported earlier with 0.4 mM isopropyl β-D-1-thiogalactopyranoside induction at 18 °C for 24 h. Bacterial cell cultures were harvested by centrifugation at 4000× g for 20 min. Periplasmic fraction from the harvested cells was removed by osmatic shock. Cells were resuspended in 7 mL of lysis buffer (20 mM Tris-HCl pH 8.0, 150 mM NaCl, 10% glycerol, 2 mM MgCl2, 10 μM E-64, 1 μM pepstatin-A, 10 μM leupeptin, 1 mM pefabloc SC, 2 mM β-Mercaptoethanol, 1 mg/mL lysozyme, 30 U/mL DNase) per gram of cell pellet and incubated on ice for 30 min with continuous stirring. […] The solubilized membrane sample was centrifuged at 100,000× g for 1 h at 4 °C and the supernatant was collected. Imidazole was added to the supernatant to a final concentration of 5 mM before starting purification using Ni-NTA resin in batch mode as reported. Eluted fractions with muOPR were pooled, concentrated and subjected to size exclusion chromatography (SEC) using HiLoad 16/600 Superdex 200 pg column (GE Healthcare Sciences, Berlin, Germany) equilibrated with 20 mM Tris pH 8, 150 mM NaCl, 0.1% Fos12, 10% Glycerol and 1 mM TCEP. SEC elution fractions were analyzed by SDS-PAGE and western blotting with Monoclonal Anti-polyHistidine-Peroxidase antibody (Sigma-Aldrich) for protein presence and purity before use.
The spectrum of the wells was then recorded from 190 to 260 nm using a Spectramax plus scanning spectrophotometer (Molecular Devices, San Jose, CA, USA) using SOFTMax PRO software (Molecular Devices, San Jose, CA, USA). The procedure described above was repeated an additional eleven times using compound dilutions of increasing concentration each time.
Data were analyzed in Excel. The raw spectra were processed by averaging the three runs of each condition and then subtracting the absorbance of the buffer alone at each volume. The triplicate data for each experimental condition were averaged. The compound + buffer data were subtracted from the muOPR + compound data at each volume to leave the spectrum of the muOPR under that experimental condition. […] Because the final calculations involve several subtractions, error bars […].

[17] = molecular target: B2AR 103–113 peptide (β-2-adrenergic receptor) (Homo sapiens, UniProt P07550); experiment: biochemical
Protocol: as §1, §2
(§4) If the measured absorbance is different than the additive absorbance of each compound, then that indicates some sort of molecular interaction. The binding can be quantified by graphing the difference in absorbance against the concentration of the compound varied to provide a binding curve. The absorbance for the phosphate buffer is subtracted for each well before any calculations are done. […]

[18] = molecular target: HIST 166–172 peptide (histamine 1 receptor) (Homo sapiens, UniProt P35367); experiment: biochemical
[19] = molecular target: HIST 177–183 peptide (histamine 1 receptor) (Homo sapiens, UniProt P35367); experiment: biochemical
[20] = molecular target: INSR 157–166 peptide (insulin receptor) (Homo sapiens, UniProt P06213); experiment: biochemical
Protocol: as §1, §2, §4

[21] = molecular target: Met-enkephalin (Homo sapiens); experiment: UV spectroscopy; details: modification not given

Sequence of intact, purified human mu opioid receptor (muOPR) (P35372 whole entry): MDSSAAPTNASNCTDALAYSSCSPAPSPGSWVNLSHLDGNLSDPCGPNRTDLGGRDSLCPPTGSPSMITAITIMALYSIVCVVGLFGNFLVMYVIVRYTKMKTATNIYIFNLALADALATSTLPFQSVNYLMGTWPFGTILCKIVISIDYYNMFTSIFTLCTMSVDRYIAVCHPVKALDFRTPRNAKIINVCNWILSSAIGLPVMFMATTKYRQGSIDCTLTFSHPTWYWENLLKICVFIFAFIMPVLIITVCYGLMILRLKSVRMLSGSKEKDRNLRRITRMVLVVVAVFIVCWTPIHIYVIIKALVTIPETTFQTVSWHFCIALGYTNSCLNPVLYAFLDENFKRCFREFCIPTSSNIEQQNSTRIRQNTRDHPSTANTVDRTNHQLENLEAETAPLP
Sequence of muOPR peptides (P35372 with tags, fused parts or gaps): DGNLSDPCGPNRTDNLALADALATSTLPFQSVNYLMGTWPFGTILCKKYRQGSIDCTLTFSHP

Molecule `Cc1cc2nc3c(=O)[nH]c(=O)nc-3n(C[C@H](O)[C@H](O)[C@H](O)CO)c2cc1C` [RIBO, riboflavin] has a Kd [1] of 50 µM, a Kd [2] of over 1000 µM and a Kd [3] of over 1000 µM. It also gave a Kd [4] of 100 µM, a Kd [5] of over 1000 µM and a Kd [6] of 400 µM. The Kd [7] was 600 µM, the Kd [8] was 500 µM and the Kd [9] was 600 µM. It also gave a Kd [10] of 300 µM, a Kd [11] of over 1000 µM and a Kd [12] of 400 µM. The Kd [13] was 500 µM, the Kd [14] was 450 µM and the Kd [15] was 500 µM.

In the case of `NCCc1c[nH]cn1` [Hist, histamine], the “binding to the muOPR peptides (in words)” value (muOPR peptides) is reported as “no measurable binding”.

In the case of `NCCc1ccc(O)c(O)c1` [DOP, dopamine], the “binding to the muOPR peptides (in words)” value (muOPR peptides) is reported as “only displayed the low affinity binding”.

In the case of `CC(=O)OCC[N+](C)(C)C` [ACh, acetylcholine], the “binding to the muOPR peptides (in words)” value (muOPR peptides; UV spectroscopy) is reported as “no measurable binding”, the Kd [16] is reported as over 1000 µM and the Kd ([16]; Kd @ 210 nm (μM), 210 nm) is reported as over 1000 µM. For the same molecule, the “binding to intact muOPR (in words)” value [16] was “No significant binding”, the Kd [1] was over 1000 µM and the Kd [2] was over 1000 µM. It also gave a Kd [3] of over 1000 µM, a Kd [4] of over 1000 µM and a Kd [5] of over 1000 µM.

Work on `OC[C@H]1OC(O)[C@H](O)[C@@H](O)[C@@H]1O` (some centres unmarked) [GLUC, glucose] yielded a Kd [1] of over 1000 µM, a Kd [2] of over 1000 µM and a Kd [3] of over 1000 µM. For the same molecule, the Kd [4] was over 1000 µM, the Kd [5] was over 1000 µM and the Kd [6] was over 1000 µM. It also gave a Kd [7] of over 1000 µM, a Kd [17] of over 1000 µM and a Kd [8] of over 1000 µM. The Kd [9] was over 1000 µM, the Kd [10] was over 1000 µM and the Kd [11] was over 1000 µM. It also gave a Kd [12] of over 1000 µM, a Kd [13] of over 1000 µM and a Kd [14] of over 1000 µM. For the same molecule, the Kd [18] was over 1000 µM and the Kd [19] was over 1000 µM.

With `O=C1O[C@H]([C@@H](O)CO)C(O)=C1O` [ASC, ascorbic acid] the “binding to the muOPR peptides (in words)” value (muOPR peptides; UV spectroscopy) was “did not bind” and the “binding to intact muOPR (in words)” value [16] was “No significant binding”.

Molecule `NCCc1c[nH]c2ccc(O)cc12` [5HT, 5-hydroxytryptamine] has a Kd [1] of 100 µM, a Kd [2] of 100 µM and a Kd [3] of 350 µM. It also gave a Kd [4] of 100 µM and a Kd [5] of 90 µM.

For `C=CCN1CC[C@]23c4c5ccc(O)c4O[C@H]2C(=O)CC[C@@]3(O)[C@H]1C5` [Nalox, naloxone], the Kd [6] was 5 µM, the Kd [7] was 6 µM and the Kd [17] was 3 µM. It also gave a Kd [8] of 40 µM, a Kd [9] of 5 µM and a Kd [10] of 20 µM. For the same molecule, the Kd [15] was 20 µM and the Kd [20] was 200 µM.

`CN1CC[C@]23c4c5ccc(O)c4O[C@H]2[C@@H](O)C=C[C@H]3[C@H]1C5` [Morph, morphine sulfate] gave a Kd [9] of 20 µM and a Kd [10] of 10 µM.

Molecule `O=C(O)CN(CCN(CC(=O)O)CC(=O)O)CC(=O)O` [EDTA, ethylenediaminetetraacetic acid] has a Kd [15] of over 1000 µM and a Kd [20] of over 1000 µM.

For NLALADALATST, the Kd [21] was 80 µM.

With KYRQGSIDCTLTFSHP the Kd [21] was 1 µM.

In the case of TLPFQSVNYL, the Kd [21] is reported as 90 µM.
